# Assay results: ChEMBL document CHEMBL1275409, “Antimicrobial-resistant pathogens in intensive care units in Canada: results of the Canadian National Intensive Care Unit (CAN-ICU) study, 2005-2006” (2008)
# How the values were obtained:
# Type in all cases: functional
# Enterococcus sp. [1] = assay: Antimicrobial activity against vancomycin-resistant Enterococcus sp. isolated from ICU patient wound assessed as resistant isolates by broth microdilution method in presence of beta-lactamase inhibitor Tazobactam
# Staphylococcus aureus [2] = assay: Antimicrobial activity against methicillin-susceptible Staphylococcus aureus isolated from ICU patient blood assessed as resistant isolates by broth microdilution method in presence of beta-lactamase inhibitor Tazobactam
# Klebsiella pneumoniae [3] = assay: Antimicrobial activity against ESBL producing Klebsiella pneumoniae isolated from ICU patient wound assessed as resistant isolates by broth microdilution method in presence of beta-lactamase inhibitor Tazobactam
# [4] = system: Staphylococcus epidermidis; assay: Antimicrobial activity against methicillin-resistant Staphylococcus epidermidis isolated from ICU patient wound assessed as resistant isolates by broth microdilution method in presence of beta-lactamase inhibitor Tazobactam
# Enterobacter cloacae [5] = assay: Antimicrobial activity against carbapenem-resistant Enterobacter cloacae isolated from ICU patient urine assessed as resistant isolates by broth microdilution method in presence of beta-lactamase inhibitor Tazobactam
# Enterococcus sp. [6] = assay: Antimicrobial activity against vancomycin-resistant Enterococcus sp. isolated from ICU patient urine assessed as resistant isolates by broth microdilution method in presence of beta-lactamase inhibitor Tazobactam
# Staphylococcus aureus [7] = assay: Antimicrobial activity against methicillin-resistant Staphylococcus aureus isolated from ICU patient respiratory tract assessed as resistant isolates by broth microdilution method in presence of beta-lactamase inhibitor Tazobactam
# Pseudomonas aeruginosa [8] = assay: Antimicrobial activity against carbapenem-resistant Pseudomonas aeruginosa isolated from ICU patient blood assessed as resistant isolates by broth microdilution method in presence of beta-lactamase inhibitor Tazobactam
# Enterococcus sp. [9] = assay: Antimicrobial activity against vancomycin-resistant Enterococcus sp. isolated from ICU patient blood assessed as resistant isolates by broth microdilution method in presence of beta-lactamase inhibitor Tazobactam
# Pseudomonas aeruginosa [10] = assay: Antimicrobial activity against carbapenem-resistant Pseudomonas aeruginosa isolated from ICU patient respiratory tract assessed as resistant isolates by broth microdilution method in presence of beta-lactamase inhibitor Tazobactam
# Haemophilus influenzae [11] = assay: Antimicrobial activity against Haemophilus influenzae assessed as resistant isolates by broth microdilution method in presence of beta-lactamase inhibitor Tazobactam
# Pseudomonas aeruginosa [12] = assay: Antimicrobial activity against carbapenem-resistant Pseudomonas aeruginosa assessed as resistant isolates by broth microdilution method in presence of beta-lactamase inhibitor Tazobactam
# Enterococcus sp. [13] = assay: Antimicrobial activity against vancomycin-resistant Enterococcus sp. isolated from ICU patient respiratory tract assessed as resistant isolates by broth microdilution method in presence of beta-lactamase inhibitor Tazobactam
# [14] = system: Staphylococcus epidermidis; assay: Antimicrobial activity against methicillin-susceptible Staphylococcus epidermidis isolated from ICU patient respiratory tract assessed as resistant isolates by broth microdilution method in presence of beta-lactamase inhibitor Tazobactam
# [15] = system: Staphylococcus epidermidis; assay: Antimicrobial activity against methicillin-susceptible Staphylococcus epidermidis isolated from ICU patient wound assessed as resistant isolates by broth microdilution method in presence of beta-lactamase inhibitor Tazobactam
# Enterobacter cloacae [16] = assay: Antimicrobial activity against carbapenem-resistant Enterobacter cloacae isolated from ICU patient wound assessed as resistant isolates by broth microdilution method in presence of beta-lactamase inhibitor Tazobactam
# Staphylococcus aureus [17] = assay: Antimicrobial activity against methicillin-susceptible Staphylococcus aureus assessed as resistant isolates by broth microdilution method in presence of beta-lactamase inhibitor Tazobactam
# Klebsiella pneumoniae [18] = assay: Antimicrobial activity against ESBL producing Klebsiella pneumoniae isolated from ICU patient urine assessed as resistant isolates by broth microdilution method in presence of beta-lactamase inhibitor Tazobactam
# Staphylococcus aureus [19] = assay: Antimicrobial activity against methicillin-susceptible Staphylococcus aureus isolated from ICU patient respiratory tract assessed as resistant isolates by broth microdilution method in presence of beta-lactamase inhibitor Tazobactam
# Haemophilus influenzae [20] = assay: Antimicrobial activity against Haemophilus influenzae isolated from ICU patient wound assessed as resistant isolates by broth microdilution method in presence of beta-lactamase inhibitor Tazobactam
# Escherichia coli [21] = assay: Antimicrobial activity against CTX-M ESBL producing Escherichia coli isolated from ICU patient respiratory tract assessed as resistant isolates by broth microdilution method in presence of beta-lactamase inhibitor Tazobactam
# [22] = system: Staphylococcus epidermidis; assay: Antimicrobial activity against methicillin-susceptible Staphylococcus epidermidis isolated from ICU patient urine assessed as resistant isolates by broth microdilution method in presence of beta-lactamase inhibitor Tazobactam
# Pseudomonas aeruginosa [23] = assay: Antimicrobial activity against carbapenem-resistant Pseudomonas aeruginosa isolated from ICU patient wound assessed as resistant isolates by broth microdilution method in presence of beta-lactamase inhibitor Tazobactam
# [24] = system: Staphylococcus epidermidis; assay: Antimicrobial activity against methicillin-susceptible Staphylococcus epidermidis isolated from ICU patient blood assessed as resistant isolates by broth microdilution method in presence of beta-lactamase inhibitor Tazobactam
# Staphylococcus aureus [25] = assay: Antimicrobial activity against methicillin-resistant Staphylococcus aureus isolated from ICU patient blood assessed as resistant isolates by broth microdilution method in presence of beta-lactamase inhibitor Tazobactam
# Enterobacter cloacae [26] = assay: Antimicrobial activity against carbapenem-resistant Enterobacter cloacae assessed as resistant isolates by broth microdilution method in presence of beta-lactamase inhibitor Tazobactam
# [27] = system: Staphylococcus epidermidis; assay: Antimicrobial activity against methicillin-susceptible Staphylococcus epidermidis assessed as resistant isolates by broth microdilution method in presence of beta-lactamase inhibitor Tazobactam
# Escherichia coli [28] = assay: Antimicrobial activity against CTX-M ESBL producing Escherichia coli isolated from ICU patient wound assessed as resistant isolates by broth microdilution method in presence of beta-lactamase inhibitor Tazobactam
# Klebsiella pneumoniae [29] = assay: Antimicrobial activity against ESBL producing Klebsiella pneumoniae isolated from ICU patient respiratory tract assessed as resistant isolates by broth microdilution method in presence of beta-lactamase inhibitor Tazobactam
# Enterobacter cloacae [30] = assay: Antimicrobial activity against carbapenem-resistant Enterobacter cloacae isolated from ICU patient respiratory tract assessed as resistant isolates by broth microdilution method in presence of beta-lactamase inhibitor Tazobactam
# Staphylococcus aureus [31] = assay: Antimicrobial activity against methicillin-resistant Staphylococcus aureus isolated from ICU patient wound assessed as resistant isolates by broth microdilution method in presence of beta-lactamase inhibitor Tazobactam
# Escherichia coli [32] = assay: Antimicrobial activity against CTX-M ESBL producing Escherichia coli assessed as resistant isolates by broth microdilution method in presence of beta-lactamase inhibitor Tazobactam
# Klebsiella pneumoniae [33] = assay: Antimicrobial activity against ESBL producing Klebsiella pneumoniae assessed as resistant isolates by broth microdilution method in presence of beta-lactamase inhibitor Tazobactam
# Pseudomonas aeruginosa [34] = assay: Antimicrobial activity against carbapenem-resistant Pseudomonas aeruginosa isolated from ICU patient urine assessed as resistant isolates by broth microdilution method in presence of beta-lactamase inhibitor Tazobactam
# Klebsiella pneumoniae [35] = assay: Antimicrobial activity against ESBL producing Klebsiella pneumoniae isolated from ICU patient blood assessed as resistant isolates by broth microdilution method in presence of beta-lactamase inhibitor Tazobactam
# [36] = system: Staphylococcus epidermidis; assay: Antimicrobial activity against methicillin-resistant Staphylococcus epidermidis isolated from ICU patient blood assessed as resistant isolates by broth microdilution method in presence of beta-lactamase inhibitor Tazobactam
# Staphylococcus aureus [37] = assay: Antimicrobial activity against methicillin-resistant Staphylococcus aureus assessed as resistant isolates by broth microdilution method in presence of beta-lactamase inhibitor Tazobactam
# [38] = system: Staphylococcus epidermidis; assay: Antimicrobial activity against methicillin-resistant Staphylococcus epidermidis isolated from ICU patient urine assessed as resistant isolates by broth microdilution method in presence of beta-lactamase inhibitor Tazobactam
# [39] = system: Staphylococcus epidermidis; assay: Antimicrobial activity against methicillin-resistant Staphylococcus epidermidis assessed as resistant isolates by broth microdilution method in presence of beta-lactamase inhibitor Tazobactam
# Staphylococcus aureus [40] = assay: Antimicrobial activity against methicillin-susceptible Staphylococcus aureus isolated from ICU patient urine assessed as resistant isolates by broth microdilution method in presence of beta-lactamase inhibitor Tazobactam
# Enterococcus sp. [41] = assay: Antimicrobial activity against vancomycin-resistant Enterococcus sp. isolated from ICU patient respiratory tract assessed as resistant isolates by broth microdilution method
# Haemophilus influenzae [42] = assay: Antimicrobial activity against Haemophilus influenzae isolated from ICU patient respiratory tract assessed as resistant isolates by broth microdilution method in presence of beta-lactamase inhibitor Tazobactam
# Escherichia coli [43] = assay: Antimicrobial activity against CTX-M ESBL producing Escherichia coli isolated from ICU patient urine assessed as resistant isolates by broth microdilution method in presence of beta-lactamase inhibitor Tazobactam
# Staphylococcus aureus [44] = assay: Antimicrobial activity against methicillin-susceptible Staphylococcus aureus isolated from ICU patient wound assessed as resistant isolates by broth microdilution method in presence of beta-lactamase inhibitor Tazobactam
# Staphylococcus aureus [45] = assay: Antimicrobial activity against methicillin-resistant Staphylococcus aureus isolated from ICU patient urine assessed as resistant isolates by broth microdilution method in presence of beta-lactamase inhibitor Tazobactam
# Enterobacter cloacae [46] = assay: Antimicrobial activity against carbapenem-resistant Enterobacter cloacae isolated from ICU patient blood assessed as resistant isolates by broth microdilution method in presence of beta-lactamase inhibitor Tazobactam
# Haemophilus influenzae [47] = assay: Antimicrobial activity against Haemophilus influenzae isolated from ICU patient blood assessed as resistant isolates by broth microdilution method in presence of beta-lactamase inhibitor Tazobactam
# Enterococcus sp. [48] = assay: Antimicrobial activity against vancomycin-resistant Enterococcus sp. assessed as resistant isolates by broth microdilution method in presence of beta-lactamase inhibitor Tazobactam
# Escherichia coli [49] = assay: Antimicrobial activity against CTX-M ESBL producing Escherichia coli isolated from ICU patient blood assessed as resistant isolates by broth microdilution method in presence of beta-lactamase inhibitor Tazobactam
compound,measurement,setting,value
CCN1CCN(C(=O)N[C@@H](C(=O)N[C@@H]2C(=O)N3[C@@H]2SC(C)(C)[C@@H]3C(=O)O)c2ccccc2)C(=O)C1=O [PIPERACILLIN],Activity,Enterococcus sp. [1],22.2%
same,Activity,Staphylococcus aureus [2],0%
same,Activity,Klebsiella pneumoniae [3],18.9%
same,Activity,[4],100%
same,Activity,Enterobacter cloacae [5],12.5%
same,Activity,Enterococcus sp. [6],17.3%
same,Activity,Staphylococcus aureus [7],100%
same,Activity,Pseudomonas aeruginosa [8],0%
same,Activity,Enterococcus sp. [9],27%
same,Activity,Pseudomonas aeruginosa [10],2.5%
same,Activity,Haemophilus influenzae [11],0.3%
same,Activity,Pseudomonas aeruginosa [12],1.3%
same,Activity,Enterococcus sp. [13],13.3%
same,Activity,[14],0%
same,Activity,[15],4.2%
same,Activity,Enterobacter cloacae [16],0%
same,Activity,Staphylococcus aureus [17],0%
same,Activity,Klebsiella pneumoniae [18],13.3%
same,Activity,Staphylococcus aureus [19],0%
same,Activity,Haemophilus influenzae [20],0%
same,Activity,Escherichia coli [21],1.6%
same,Activity,[22],0%
same,Activity,Pseudomonas aeruginosa [23],0%
same,Activity,[24],0%
same,Activity,Staphylococcus aureus [25],100%
same,Activity,Enterobacter cloacae [26],4.9%
same,Activity,[27],1.2%
same,Activity,Escherichia coli [28],0%
same,Activity,Klebsiella pneumoniae [29],7.3%
same,Activity,Enterobacter cloacae [30],4.6%
same,Activity,Staphylococcus aureus [31],100%
same,Activity,Escherichia coli [32],1.9%
same,Activity,Klebsiella pneumoniae [33],9.3%
same,Activity,Pseudomonas aeruginosa [34],0%
same,Activity,Klebsiella pneumoniae [35],6.1%
same,Activity,[36],100%
same,Activity,Staphylococcus aureus [37],100%
same,Activity,[38],100%
same,Activity,[39],100%
same,Activity,Staphylococcus aureus [40],0%
same,Activity,Enterococcus sp. [41],0%
same,Activity,Haemophilus influenzae [42],0.3%
same,Activity,Escherichia coli [43],1.1%
same,Activity,Staphylococcus aureus [44],0%
same,Activity,Staphylococcus aureus [45],100%
same,Activity,Enterobacter cloacae [46],4.2%
same,Activity,Haemophilus influenzae [47],0%
same,Activity,Enterococcus sp. [48],21.1%
same,Activity,Escherichia coli [49],6.9%
